Read-outs that look alike come from different tables or passages of the source.
Assays:
[1] = 3 hours after administration, cited from earlier work
[2] = Pharmacokinetics (distribution in organs and tissues) in intact female rats after intravenous introduction; assay type: in vivo; details: for Blood / Femur / Kidneys / Liver / Skeleton / Stomach / Urinary bladder (1, 3 h) / Excretion (5, 24): intact female rats, i.v.
Description: (§1) The experiments were run on the intact scrub albino rats with modeled osseous pathology. The osseous pathology was imitated by the femur fracture.
(§2) To prepare the composition, 5.0 ml of the sodium pertechnetate ^99mTc from the technetium generator (FSP 42-0225-4528-03, FSP 42-0018-2694-02) were injected into the lyophilizate vial by puncturing the rubber stopper with a syringe needle; then the vial was agitated and cured 20 minutes. The 0.2 ml volume of the composition was injected into the caudal vein. 1, 3, 5, and 24 hours after injection the animals were devitalized by decapitation; then the samples of blood, liver, kidneys, stomach, right and left femurs, urinary bladder with contents were taken. The radionuclide in organs and tissues was determined by the direct radiometry.
(§3) The statistical treatment used the Student's method.

[3] = Pharmacokinetics (distribution in organs and tissues) in female rats with modeled osseous pathology (femur fracture) after intravenous introduction; assay type: in vivo; details: for Blood / Femur, fractured / Femur, normal / Kidneys / Liver / Skeleton / Stomach / Urinary bladder (1, 3 h) / Excretion (5, 24): female rats with modeled osseous pathology, i.v.; for Delayed retention index: ratio of concentration in femur with modeled pathology to healthy femur
Description: as §1, §2
The delayed retention index was determined as the ratio of division of the composition concentration in the femoral bone with the modeled osseous pathology and in the healthy femoral bone.
as §3

[4] = intact animals, 3 hours after introduction

## 99Tcm labeled zoledronate (ZL) [known solution (Wang et al)]
[1]; known solution (Wang et al)
  skeletal retention of RM: 34.2%
[1]; prior metal complex (Wang et al)
  retention level in the liver: 13.4 % of the doze injected

## Technetium-99m in form of complex with zoledronic acid [zoledronic acid, 99mTc]
[2]; 3 hours after administration
  retention level in the liver: 1.0 % of the doze injected
[2]; 3 hours after the administration
  skeletal retention of RM: 47.3 % of the dose injected
[2]; 5 hours after the study start
  activity level in blood: trace
[2]; [4]
  excretion: 30%
  retention in the skeleton: 47%
[2]; intact animals, intravenous injection, in one hour
  injected activity localizes in the skeleton: up to 48 % of the injected activity
[2]; intact animals, intravenous injection, in one hour, 60 min
  excreted from the organism with the urine: 45%
[2]; 1 h
  Blood: 1.7 ± 0.27 % dose/organ
  Femur: 1.8 ± 0.16 % dose/organ
  Kidneys: 1.3 ± 0.17 % dose/organ
  Liver: 0.8 ± 0.12 % dose/organ
  Skeleton: 48.1 ± 4.36 % dose/organ
  Stomach: 0.1 ± 0.03 % dose/organ
  Urinary bladder (1, 3 h): 45.4 ± 4.03 % dose/organ
[2]; 3 h
  Blood: 0.9 ± 0.38 % dose/organ
  Femur: 1.9 ± 0.35 % dose/organ
  Kidneys: 0.9 ± 0.21 % dose/organ
  Liver: 1.0 ± 0.27 % dose/organ
  Skeleton: 47.3 ± 2.89 % dose/organ
  Stomach: 0.1 ± 0.01 % dose/organ
  Urinary bladder (1, 3 h): 30.1 ± 4.41 % dose/organ
[2]; 5 h
  Blood: 0.4 ± 0.03 % dose/organ
  Excretion (5, 24): 52.4 ± 2.80 % dose/organ
  Femur: 1.6 ± 0.11 % dose/organ
  Kidneys: 1.2 ± 0.13 % dose/organ
  Liver: 0.6 ± 0.11 % dose/organ
  Skeleton: 42.9 ± 2.93 % dose/organ
  Stomach: 0.1 ± 0.04 % dose/organ
[2]; 24 h
  Blood: traces
  Excretion (5, 24): 39.1 ± 5.00 % dose/organ
  Femur: 1.8 ± 0.06 % dose/organ
  Kidneys: 0.6 ± 0.32 % dose/organ
  Liver: 0.2 ± 0.13 % dose/organ
  Skeleton: 49.6 ± 1.77 % dose/organ
  Stomach: 0.3 ± 0.05 % dose/organ
[3]; 1 h
  Blood: 1.7 ± 0.71 % dose/organ
  Femur, fractured: 4.2 ± 1.04 % dose/organ
  Femur, normal: 2.1 ± 0.20 % dose/organ
  Kidneys: 1.8 ± 0.83 % dose/organ
  Liver: 1.7 ± 0.58 % dose/organ
  Skeleton: 57.7 ± 5.54 % dose/organ
  Stomach: 0.4 ± 0.03 % dose/organ
  Urinary bladder (1, 3 h): 35.1 ± 10.53 % dose/organ
  Delayed retention index: 2.0
[3]; 3 h
  Blood: 2.0 ± 0.81 % dose/organ
  Femur, fractured: 4.0 ± 1.34 % dose/organ
  Femur, normal: 1.9 ± 0.42 % dose/organ
  Kidneys: 1.4 ± 0.68 % dose/organ
  Liver: 1.1 ± 0.42 % dose/organ
  Skeleton: 46.6 ± 7.81 % dose/organ
  Stomach: 0.2 ± 0.09 % dose/organ
  Urinary bladder (1, 3 h): 44.8 ± 3.89 % dose/organ
  Delayed retention index: 2.1
[3]; 5 h
  Blood: 0.5 ± 0.01 % dose/organ
  Excretion (5, 24): 43.4 ± 5.05 % dose/organ
  Femur, fractured: 3.1 ± 0.70 % dose/organ
  Femur, normal: 1.9 ± 0.20 % dose/organ
  Kidneys: 0.9 ± 0.06 % dose/organ
  Liver: 1.0 ± 0.05 % dose/organ
  Skeleton: 49.9 ± 5.44 % dose/organ
  Stomach: 0.4 ± 0.05 % dose/organ
  Delayed retention index: 1.7
[3]; 24 h
  Blood: 0.7 ± 0.01 % dose/organ
  Excretion (5, 24): 52.5 ± 10.86 % dose/organ
  Femur, fractured: 2.5 ± 0.05 % dose/organ
  Femur, normal: 1.4 ± 0.40 % dose/organ
  Kidneys: 0.5 ± 0.08 % dose/organ
  Liver: 0.5 ± 0.09 % dose/organ
  Skeleton: 38.0 ± 11.02 % dose/organ
  Stomach: traces
  Delayed retention index: 1.9

Source: EP2351758B1, “METAL COMPLEXES, A METHOD FOR PREPARING SAME, RADIOPHAR[…] BASED THEREON” (Zakrytoe Aktsionernoe Obschestvo "Farm-Sintez", priority 2008, dated 2010)
